Active and inactive are the calls of the source.

Data on 25 compounds can be found in ChEMBL document CHEMBL1201862, “PubChem BioAssay data set” (2004).

Data set [1] addresses T1, Cytochrome P450 3A4 (Homo sapiens, UniProt P08684).
The target in the next data set is Paired box protein Pax-8 (Homo sapiens, UniProt Q06710). Put plainly: inhibitors of PAX8-driven TPO luciferase reporter, dose response, RMG-I cells, cherry-pick (AID 687027).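 Note: luciferase reporter driven by Pax8 target thyroperoxidase promoter measured by SteadyGlo luminescence.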 The class given is functional, cell-based.
Sequence of Paired box protein Pax-8 (Q06710 whole entry): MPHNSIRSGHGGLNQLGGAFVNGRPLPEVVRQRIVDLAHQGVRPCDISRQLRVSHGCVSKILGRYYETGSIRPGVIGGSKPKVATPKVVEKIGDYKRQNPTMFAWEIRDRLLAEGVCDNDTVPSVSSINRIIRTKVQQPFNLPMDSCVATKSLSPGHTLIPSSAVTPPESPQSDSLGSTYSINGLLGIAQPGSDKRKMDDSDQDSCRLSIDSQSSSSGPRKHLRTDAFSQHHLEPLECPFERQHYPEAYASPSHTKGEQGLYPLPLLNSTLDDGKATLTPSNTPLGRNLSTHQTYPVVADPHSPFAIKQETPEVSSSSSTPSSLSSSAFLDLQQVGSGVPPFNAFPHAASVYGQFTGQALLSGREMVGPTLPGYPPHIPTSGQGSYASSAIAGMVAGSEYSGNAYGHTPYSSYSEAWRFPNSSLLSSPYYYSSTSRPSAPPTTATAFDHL
Data set [2] can be described thus: cytotoxicity in OVCAR8 ovarian cancer cells, dose response, PAX8 project, cell-based, plate reader, dry powder samples (AID 743197). The format is functional. The settings on record: OVCAR-8.
Data set [3] relates to Vero. Put plainly: cells. The format is functional, cell-based. The settings on record: Chlorocebus sabaeus.
The subject of data set [4] is Vero. Put plainly: cells. The class given is functional. The settings on record: Chlorocebus sabaeus.
For data set [5], the target named is T2, High affinity choline transporter 1 (Homo sapiens, UniProt Q9GZV3).
T2 sequence (Q9GZV3 whole entry): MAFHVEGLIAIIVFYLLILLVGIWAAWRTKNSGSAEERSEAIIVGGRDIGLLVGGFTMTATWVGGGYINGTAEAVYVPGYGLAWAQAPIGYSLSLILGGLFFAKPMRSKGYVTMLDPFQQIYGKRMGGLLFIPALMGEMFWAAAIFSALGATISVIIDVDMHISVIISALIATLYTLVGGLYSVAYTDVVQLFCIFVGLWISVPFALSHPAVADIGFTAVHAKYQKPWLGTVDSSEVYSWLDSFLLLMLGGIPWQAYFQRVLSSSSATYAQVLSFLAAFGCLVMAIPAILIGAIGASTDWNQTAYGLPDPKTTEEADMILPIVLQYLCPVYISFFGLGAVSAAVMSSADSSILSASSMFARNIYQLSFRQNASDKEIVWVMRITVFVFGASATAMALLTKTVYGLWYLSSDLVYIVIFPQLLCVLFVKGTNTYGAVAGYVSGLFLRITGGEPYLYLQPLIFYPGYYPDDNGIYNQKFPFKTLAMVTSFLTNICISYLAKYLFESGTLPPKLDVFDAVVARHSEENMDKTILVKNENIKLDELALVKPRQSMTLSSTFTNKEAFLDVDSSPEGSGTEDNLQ
Put plainly: CHT inhibitors, dose response, cell-based, 5-point CRC, membrane potential dye (AID 504840). The format is functional.

A short description of data set [6]: inhibitors of clade B AD8 Env fusion, dose response, cell-based, cherry-pick (AID 652062).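 Note: luciferase signal from cell-cell fusion driven by HIV-1 clade B AD8 Env; potency is for inhibitors of fusion seen as a drop in luminescence.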 The format is functional.
Data set [7] is described as follows: inhibitors of HIV Env-driven cell fusion, dose response, cherry-pick (AID 652057). The format is functional, cell-based.
Data set [8] can be described thus: ZM109 Env clade C HIV-1 fusion inhibitors, dose response, HeLa effector, CEM target cells, luciferase, cherry-pick (AID 652058). The class given is functional, cell-based.
Data set [9] deals with Eukaryotic translation initiation factor 4E (Mus musculus, UniProt P63073). Briefly: eIF4E–eIF4G protein interaction inhibitors, dose response, biochemical, TR-FRET (AID 855).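 Note: potency for disrupting eIF4E binding to eIF4GI seen as loss of FRET.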 The class given is functional. (In general: TR-FRET usually uses a lanthanide donor and a delayed reading to cut background.)
Sequence of Eukaryotic translation initiation factor 4E (P63073 whole entry): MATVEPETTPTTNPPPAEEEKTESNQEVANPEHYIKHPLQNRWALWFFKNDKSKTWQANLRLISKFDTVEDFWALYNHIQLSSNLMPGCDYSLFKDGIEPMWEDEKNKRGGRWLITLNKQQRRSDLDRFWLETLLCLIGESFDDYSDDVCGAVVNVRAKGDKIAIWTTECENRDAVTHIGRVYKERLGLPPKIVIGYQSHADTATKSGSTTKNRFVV
A short description of data set [10]: LGR2 antagonists, dose response, cell-based, HEK293, CRE-luciferase reporter, cherry pick, set 2 (AID 743343).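 Note: transfected cells were stimulated with diluted bursicon conditioned medium after compound addition.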 The format is functional.
Data set [11] in a line: MC4R antagonists, dose response, counter-screen for LGR2 antagonist project, cell-based, plate reader, cherry pick (AID 743444).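 Note: transfected HEK 293 cells stimulated with alpha-MSH peptide; potency of inhibitors of the alpha-MSH evoked signal.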 The class given is functional. (In general: Counterscreens check selectivity or assay interference.)
Data set [12] in a line: A549 cell cytotoxicity, dose response, cytotoxicity control, plate reader, cherry-pick, antagonist series (AID 743412). The format is functional, cell-based.
A further data set deals with Cytochrome P450 2C9 (Homo sapiens, UniProt P11712).
Data set [13] has as its target T1, Cytochrome P450 3A4. The source holds these as a separate data set.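 Note: CYP3A4 tested as one member of a cytochrome P450 panel screen.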
In data set [14] the target is T3, Carboxy-terminal domain RNA polymerase II polypeptide A small phosphatase 1 (Homo sapiens, UniProt Q9GZU7).
T3 sequence (Q9GZU7 whole entry): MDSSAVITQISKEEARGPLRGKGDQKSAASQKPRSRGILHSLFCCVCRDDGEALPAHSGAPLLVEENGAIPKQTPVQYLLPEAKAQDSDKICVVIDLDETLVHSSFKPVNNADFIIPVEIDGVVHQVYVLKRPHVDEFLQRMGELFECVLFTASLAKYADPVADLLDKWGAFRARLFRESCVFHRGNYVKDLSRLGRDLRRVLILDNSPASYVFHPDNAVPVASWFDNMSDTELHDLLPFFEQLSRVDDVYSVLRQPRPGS
Put plainly: inhibitors of CTDSP1, concentration-response testing, biochemical assay, absorbance-based, actives from ultra-high-throughput screening (AID 540297). The class given is functional.

A short description of data set [15]: HEp-2 cell cytotoxicity, dose response, cytotoxicity control for RSV inhibitor project, HTS (AID 2410). The class given is functional. The settings on record: human respiratory syncytial virus.
The target of the next data set is T4, Cytochrome P450 1A2 (Homo sapiens, UniProt P05177).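 Note: PubChem cytochrome P450 panel assay, CYP1A2 panel member.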
T4 sequence (P05177 whole entry): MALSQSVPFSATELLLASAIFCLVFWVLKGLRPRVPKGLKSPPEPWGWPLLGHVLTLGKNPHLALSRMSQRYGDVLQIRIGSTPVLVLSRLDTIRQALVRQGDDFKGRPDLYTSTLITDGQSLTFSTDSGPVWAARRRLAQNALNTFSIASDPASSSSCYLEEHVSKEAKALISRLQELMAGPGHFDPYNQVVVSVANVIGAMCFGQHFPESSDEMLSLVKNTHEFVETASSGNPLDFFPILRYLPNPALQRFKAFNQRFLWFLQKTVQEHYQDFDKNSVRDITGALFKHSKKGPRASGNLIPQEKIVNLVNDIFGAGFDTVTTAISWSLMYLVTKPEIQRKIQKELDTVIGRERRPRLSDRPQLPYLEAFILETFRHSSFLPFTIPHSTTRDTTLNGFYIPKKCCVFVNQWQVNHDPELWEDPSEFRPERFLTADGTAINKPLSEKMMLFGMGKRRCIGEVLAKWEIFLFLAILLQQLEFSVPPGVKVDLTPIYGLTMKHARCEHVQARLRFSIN

Another data set addresses Estrogen receptor beta (Homo sapiens, UniProt Q92731).
The target in the next data set is Cytochrome P450 2C19 (Homo sapiens, UniProt P33261). Briefly: Cytochrome panel assay with activity outcomes. Panel member name: p450-cyp2c19 Compounds with AC50 equal or less than 10 uM are considered active. The format is functional. The settings on record: read-out: AC50.
Data set [16] has as its target T5, Voltage-gated N-type calcium channel alpha-1B subunit/Amyloid beta A4 precursor protein-binding family A member 1 (Homo sapiens, UniProt Q00975+Q02410). The format is protein assay.
In data set [17] the target is T5, Voltage-gated N-type calcium channel alpha-1B subunit/Amyloid beta A4 precursor protein-binding family A member 1. The class given is protein assay. This is another data set of the same source.

T1 sequence (P08684 whole entry): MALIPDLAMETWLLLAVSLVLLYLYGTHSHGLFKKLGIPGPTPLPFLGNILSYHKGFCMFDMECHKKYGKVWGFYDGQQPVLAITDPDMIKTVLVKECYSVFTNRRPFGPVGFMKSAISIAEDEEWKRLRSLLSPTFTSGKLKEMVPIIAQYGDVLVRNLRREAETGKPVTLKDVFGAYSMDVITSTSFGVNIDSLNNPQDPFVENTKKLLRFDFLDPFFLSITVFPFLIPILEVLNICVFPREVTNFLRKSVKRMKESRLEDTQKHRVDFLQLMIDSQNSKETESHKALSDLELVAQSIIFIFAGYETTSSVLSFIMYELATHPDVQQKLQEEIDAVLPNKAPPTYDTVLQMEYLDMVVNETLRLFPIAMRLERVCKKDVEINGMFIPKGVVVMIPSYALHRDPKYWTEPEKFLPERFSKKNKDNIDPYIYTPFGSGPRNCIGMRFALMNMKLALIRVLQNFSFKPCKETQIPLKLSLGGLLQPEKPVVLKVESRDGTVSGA
Sequence of Estrogen receptor beta (Q92731 whole entry): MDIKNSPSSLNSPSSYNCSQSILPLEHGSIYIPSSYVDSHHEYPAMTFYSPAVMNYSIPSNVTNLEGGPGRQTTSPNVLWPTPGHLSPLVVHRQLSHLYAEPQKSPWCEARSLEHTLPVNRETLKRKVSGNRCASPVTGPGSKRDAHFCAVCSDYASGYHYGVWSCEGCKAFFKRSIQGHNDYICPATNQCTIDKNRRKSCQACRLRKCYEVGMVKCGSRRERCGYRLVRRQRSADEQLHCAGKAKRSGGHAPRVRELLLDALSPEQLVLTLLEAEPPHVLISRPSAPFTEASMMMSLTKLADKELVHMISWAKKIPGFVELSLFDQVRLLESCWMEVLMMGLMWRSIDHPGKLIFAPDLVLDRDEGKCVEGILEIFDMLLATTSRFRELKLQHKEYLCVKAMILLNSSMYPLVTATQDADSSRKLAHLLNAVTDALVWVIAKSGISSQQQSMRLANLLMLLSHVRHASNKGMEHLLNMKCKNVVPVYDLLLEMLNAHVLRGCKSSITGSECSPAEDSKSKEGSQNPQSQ
T5 sequence (Q00975 whole entry): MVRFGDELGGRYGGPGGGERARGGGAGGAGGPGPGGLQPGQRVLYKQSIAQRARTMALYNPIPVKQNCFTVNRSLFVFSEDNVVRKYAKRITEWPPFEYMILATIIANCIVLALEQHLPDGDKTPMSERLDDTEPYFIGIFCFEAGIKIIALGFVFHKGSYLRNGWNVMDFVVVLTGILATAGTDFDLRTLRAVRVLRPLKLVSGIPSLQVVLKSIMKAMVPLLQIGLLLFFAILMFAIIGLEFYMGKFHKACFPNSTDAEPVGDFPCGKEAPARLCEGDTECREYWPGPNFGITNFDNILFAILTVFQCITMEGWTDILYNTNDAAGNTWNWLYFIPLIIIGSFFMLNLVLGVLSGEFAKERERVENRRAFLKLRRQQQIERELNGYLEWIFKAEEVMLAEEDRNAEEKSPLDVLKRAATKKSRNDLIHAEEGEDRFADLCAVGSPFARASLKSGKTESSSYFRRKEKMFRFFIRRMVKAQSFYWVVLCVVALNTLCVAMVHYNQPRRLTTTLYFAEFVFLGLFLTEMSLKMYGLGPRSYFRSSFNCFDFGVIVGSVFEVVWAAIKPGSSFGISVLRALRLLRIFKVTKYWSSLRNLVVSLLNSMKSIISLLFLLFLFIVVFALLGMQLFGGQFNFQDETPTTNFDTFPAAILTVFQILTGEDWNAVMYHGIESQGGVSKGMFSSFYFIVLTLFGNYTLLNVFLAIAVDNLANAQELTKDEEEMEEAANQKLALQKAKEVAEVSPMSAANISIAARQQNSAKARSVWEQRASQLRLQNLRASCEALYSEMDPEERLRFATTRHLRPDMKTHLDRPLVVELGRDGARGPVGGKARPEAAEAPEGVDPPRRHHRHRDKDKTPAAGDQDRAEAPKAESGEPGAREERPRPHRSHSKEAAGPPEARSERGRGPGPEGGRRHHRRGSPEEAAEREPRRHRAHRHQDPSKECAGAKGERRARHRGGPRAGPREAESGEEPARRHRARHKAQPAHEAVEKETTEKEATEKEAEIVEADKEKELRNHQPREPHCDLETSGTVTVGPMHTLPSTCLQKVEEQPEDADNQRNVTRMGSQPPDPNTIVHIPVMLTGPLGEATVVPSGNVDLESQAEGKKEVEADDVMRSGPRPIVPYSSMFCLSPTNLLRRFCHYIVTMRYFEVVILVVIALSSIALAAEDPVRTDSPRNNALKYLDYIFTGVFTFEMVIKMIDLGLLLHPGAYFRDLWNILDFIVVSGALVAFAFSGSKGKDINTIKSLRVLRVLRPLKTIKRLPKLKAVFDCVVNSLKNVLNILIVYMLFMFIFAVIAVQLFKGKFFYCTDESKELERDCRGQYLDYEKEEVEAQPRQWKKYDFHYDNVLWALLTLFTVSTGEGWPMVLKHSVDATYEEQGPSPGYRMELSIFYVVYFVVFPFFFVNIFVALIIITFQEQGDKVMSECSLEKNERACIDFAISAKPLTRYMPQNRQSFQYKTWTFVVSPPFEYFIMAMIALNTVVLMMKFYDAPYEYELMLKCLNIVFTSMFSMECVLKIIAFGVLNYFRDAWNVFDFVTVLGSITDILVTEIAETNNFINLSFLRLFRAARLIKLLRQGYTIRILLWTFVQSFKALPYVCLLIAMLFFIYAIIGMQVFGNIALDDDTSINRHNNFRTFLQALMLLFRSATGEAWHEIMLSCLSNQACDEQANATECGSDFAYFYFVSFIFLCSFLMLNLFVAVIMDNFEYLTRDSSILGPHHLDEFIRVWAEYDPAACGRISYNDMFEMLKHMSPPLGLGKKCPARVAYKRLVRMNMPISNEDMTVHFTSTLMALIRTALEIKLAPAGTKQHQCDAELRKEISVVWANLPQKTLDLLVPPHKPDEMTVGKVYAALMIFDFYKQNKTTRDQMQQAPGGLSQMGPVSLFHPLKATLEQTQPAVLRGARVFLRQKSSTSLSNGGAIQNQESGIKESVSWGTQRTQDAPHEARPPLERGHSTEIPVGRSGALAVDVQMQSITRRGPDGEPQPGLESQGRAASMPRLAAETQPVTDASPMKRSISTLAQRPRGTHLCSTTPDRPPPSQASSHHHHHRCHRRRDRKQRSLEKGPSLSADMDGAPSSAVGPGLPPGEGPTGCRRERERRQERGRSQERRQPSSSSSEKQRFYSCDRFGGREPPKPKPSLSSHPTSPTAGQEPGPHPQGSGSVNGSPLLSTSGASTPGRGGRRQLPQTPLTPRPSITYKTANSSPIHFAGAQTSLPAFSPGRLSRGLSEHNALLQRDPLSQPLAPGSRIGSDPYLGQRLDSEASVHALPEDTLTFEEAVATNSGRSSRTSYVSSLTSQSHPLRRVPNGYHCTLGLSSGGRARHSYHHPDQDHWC
T5 sequence (Q02410 whole entry): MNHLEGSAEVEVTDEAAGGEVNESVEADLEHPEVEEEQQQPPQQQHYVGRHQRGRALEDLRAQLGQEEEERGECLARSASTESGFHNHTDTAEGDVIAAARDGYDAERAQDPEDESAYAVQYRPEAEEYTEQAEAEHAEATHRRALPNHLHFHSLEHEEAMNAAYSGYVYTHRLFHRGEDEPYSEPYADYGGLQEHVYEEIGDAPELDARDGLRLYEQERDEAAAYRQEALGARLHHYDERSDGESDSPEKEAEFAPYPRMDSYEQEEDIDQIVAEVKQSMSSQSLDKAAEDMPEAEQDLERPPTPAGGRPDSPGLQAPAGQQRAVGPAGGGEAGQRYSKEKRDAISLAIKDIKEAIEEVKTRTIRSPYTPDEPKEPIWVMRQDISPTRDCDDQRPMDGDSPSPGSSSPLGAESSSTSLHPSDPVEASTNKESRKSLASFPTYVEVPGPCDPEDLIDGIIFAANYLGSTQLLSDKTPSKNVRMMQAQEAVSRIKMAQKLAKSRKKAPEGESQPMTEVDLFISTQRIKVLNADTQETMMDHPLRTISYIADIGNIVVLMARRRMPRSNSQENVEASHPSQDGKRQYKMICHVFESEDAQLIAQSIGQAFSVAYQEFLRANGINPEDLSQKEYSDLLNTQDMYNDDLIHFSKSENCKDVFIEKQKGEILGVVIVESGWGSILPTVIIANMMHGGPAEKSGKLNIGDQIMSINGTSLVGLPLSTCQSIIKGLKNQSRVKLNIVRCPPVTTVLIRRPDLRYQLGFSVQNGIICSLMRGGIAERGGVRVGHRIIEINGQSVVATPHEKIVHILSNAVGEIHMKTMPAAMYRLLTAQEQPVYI

For `Cc1cc2ccccn2c1C(=O)c1ccc(Cl)cc1`, the AC50 – broadly, the concentration at which the activity in the assay is half-maximal – at Cytochrome P450 3A4 [1] was “inconclusive”. For `Cc1ccc(S(=O)(=O)N(C)C[C@@H]2OCCCC[C@@H](C)Oc3ccc(NS(=O)(=O)c4ccc(Cl)cc4)cc3C(=O)N([C@H](C)CO)C[C@H]2C)cc1`, the AC50 on Paired box protein Pax-8 was 4.4 µM (active); in [2], > 70 µM (inactive).

`CN1CCN(c2ccc3sc(-n4ccc5ccccc54)nc3c2)CC1`: the IC50 (usually the concentration that gives 50% inhibition) with Vero [3] was 22.7 µM (active). For the same compound, the CC50 (as a rule, the concentration giving 50% cytotoxicity) in the data set on Vero [4] is > 25 µM (active). Consider `C=CCSc1nc2ccccc2n1Cc1nnc(-c2cccs2)o1`, for which, in data set [5], the IC50 is 0.457 µM (active). As to `CO[C@@H]1CN(C)C(=O)c2cc(NS(=O)(=O)c3cn(C)cn3)ccc2OC[C@@H](C)N(Cc2ccc(C(F)(F)F)cc2)C[C@H]1C`, the half-maximal activity concentration (AC50) in [6] is 4.85 µM (active); in data set [7] it was 2.32 µM (active); in data set [8], 1.91 µM (active). With `CC1CCC(C(C)C)C(OC(=O)COC(=O)c2ccc(N)cc2)C1` (configuration not stated), the IC50 in [9] was > 64 µM (inactive).

For `CC(C)CCn1cnc2c(oc3nc4c(cc32)CCCC4)c1=O`, the half-maximal activity concentration (AC50) in [10] is 4.92 µM (active); in data set [11], 3.8 µM (active); in [12], > 52 µM (inactive). For the compound `O=C(CCNS(=O)(=O)c1cccs1)N1CCCCCC1`, the AC50 at Cytochrome P450 2C9 is 28.2 µM (inconclusive); at Cytochrome P450 3A4 [13], 20 µM (inconclusive). The IC50 in [9] was > 64 µM (inactive). On to `CC(=O)c1ccccc1NS(=O)(=O)c1cccc2nsnc12`, for which, in data set [14], the IC50 is 4.66 µM (active). On to `COc1cc2c(cc1NC(=O)c1ccc(C(C)(C)C)cc1)CCCC2`, for which the IC50 in the data set with Vero [3] was 8.78 µM (active). Besides, in [15], the CC50 was 18.2 µM (active). Consider `CC(C)n1cnc2c(C(=O)N[C@H]3CN4CCC3CC4)cc(Cl)cc21`, for which the AC50 result at Cytochrome P450 3A4 [1] is “inconclusive”; at Cytochrome P450 1A2, 39.8 µM (inconclusive). Take `O=C(C[C@@H]1C[C@@H]2c3cc(NC(=O)C4CCOCC4)ccc3O[C@@H]2[C@H](CO)O1)NCCc1ccccc1`: the AC50 in [8] is 37.3 µM (active).

For `Cc1oc(-c2ccc(Cl)cc2)nc1CN1CCC(C(=O)NCc2ccco2)CC1`, in data set [9], the IC50 was > 64 µM (inactive). On to `Cc1ccc(-n2nc(C)c(/C=N/n3c(C)nc4ccccc4c3=O)c2O)cc1`, for which the IC50 on Estrogen receptor beta was > 50 µM (not active).

Take `Cc1cccn2c(=O)c3cc(C#N)/c(=N\C(=O)c4ccco4)n(Cc4ccco4)c3nc12`: the IC50 in data set [14] is > 80 µM (inactive).

With `CC1CCCC(C)N1C(=O)Nc1cccc(Cl)c1` (configuration not stated), at Estrogen receptor beta, the IC50 was > 50 µM (not active).

In the case of `COc1ccc(-c2cn3ccsc3n2)cc1`, the IC50 against Estrogen receptor beta is > 50 µM (not active). Consider `COc1ccccc1NC(=O)c1ccc(S(=O)(=O)N(C)C)cc1`, for which the IC50 in [9] was > 64 µM (inactive). On to `O=C(O)c1cccnc1C(=O)O` [QUINOLINIC ACID], for which the AC50 entry at Cytochrome P450 3A4 [1] is on record as “inconclusive”. `CC(Oc1ccccc1F)C(=O)Nc1ccc2ccccc2c1` (configuration not stated): the IC50 in the data set with Vero [3] is > 6.25 µM (active). With `N#Cc1ccc(C2=NC(C(F)(F)F)(C(F)(F)F)c3c(n(Cc4ccco4)c(=O)[nH]c3=O)N2)cc1`, at Cytochrome P450 3A4 [1], the AC50 entry is “inconclusive”.

As to `O=C(C[n+]1cccc(Br)c1)c1cccs1`, the 50% inhibitory concentration (IC50) in data set [5] is 13.2 µM (active). `C[C@](O)(c1ccccc1)c1nccc2ccccc12`: the AC50 is 3.98 µM (inconclusive) on Cytochrome P450 2C19 and “inconclusive” on Cytochrome P450 3A4 [1]. Turning to `O=C(CSc1nnc(-c2ccco2)n1Cc1ccco1)NCc1cccs1`, the IC50 in [5] was 9.55 µM (active). Regarding `Cc1cc(C(=O)O)ccc1-c1ccc(/C=C2\SC(=O)N(CC(=O)Nc3ccc4c(c3)OCO4)C2=O)o1`, the IC50 in data set [16] was 17.5 µM (active); in data set [17], > 50 µM (inactive).
